For assay [1], the target named is JAK2 (Homo sapiens (Human), UniProt O60674). As to the kind of experiment: Jak biochemical HTRF assay, JAK2. The following applies: HTRF biochemical assay, recombinant GST-tagged catalytic domain; read-out: JAK2 IC50.
The target of assay [2] is JAK1 (Homo sapiens (Human), UniProt P23458). As to the kind of experiment: Jak biochemical HTRF assay, JAK1. Particulars: HTRF biochemical assay, recombinant GST-tagged catalytic domain; read-out: JAK1 IC50.

Among the data in patent publication US9725445B2, “Cycloalkyl nitrile pyrazolo pyridones as Janus kinase inhibitors” (Merck Sharp & Dohme Corp., priority 2013, dated 2017) are IC50 values, retold here.

Sequence of JAK2 (O60674 849-1124): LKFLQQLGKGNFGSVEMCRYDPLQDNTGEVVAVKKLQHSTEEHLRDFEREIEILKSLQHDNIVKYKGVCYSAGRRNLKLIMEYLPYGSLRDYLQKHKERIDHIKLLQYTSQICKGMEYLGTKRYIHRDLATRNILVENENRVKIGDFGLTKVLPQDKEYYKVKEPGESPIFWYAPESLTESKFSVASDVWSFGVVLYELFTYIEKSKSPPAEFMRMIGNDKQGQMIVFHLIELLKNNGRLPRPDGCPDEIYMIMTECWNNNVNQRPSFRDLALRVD
Sequence of JAK1 (P23458 875-1153): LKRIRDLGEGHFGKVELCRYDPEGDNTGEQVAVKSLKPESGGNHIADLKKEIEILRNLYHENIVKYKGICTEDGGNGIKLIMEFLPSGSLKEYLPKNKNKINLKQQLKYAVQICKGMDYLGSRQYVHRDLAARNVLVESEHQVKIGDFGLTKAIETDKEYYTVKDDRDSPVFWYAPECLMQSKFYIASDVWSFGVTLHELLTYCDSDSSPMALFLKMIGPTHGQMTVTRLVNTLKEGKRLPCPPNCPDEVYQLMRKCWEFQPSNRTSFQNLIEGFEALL

Take `N#C[C@H]1CCCC[C@@H]1n1nc(Nc2ccc3c(c2)CN(CC2CCCC2)C3)c2c(=O)[nH]ccc21` [Example 3-162, (1S,2S)-2-(3-{[2-(cyclopentylmethyl)-2,3-dihydro-1H-isoindol-5-yl]amino}-4-oxo-4,5-dihydro-1H-pyrazolo[4,3-c]pyridin-1-yl)cyclohexanecarbonitrile]: the values for the IC50 in assay [1] and in assay [2] were 0.92 nM and 0.33 nM, respectively.

With `CC(=O)NCc1cc(Nc2nn([C@H]3CCCC[C@@H]3C#N)c3cc[nH]c(=O)c23)ccc1S(=O)(=O)N(C)C` [Example 3-40, N-[5-({1-[(1S,2S)-2-cyanocyclohexyl]-4-oxo-4,5-dihydro-1H-pyrazolo[4,3-c]pyridin-3-yl}amino)-2-(dimethylsulfamoyl)benzyl]acetamide], the IC50 in assay [1] was determined as 0.79 nM; in assay [2], 0.1 nM.

Turning to `CC(C)(c1ccc(Nc2nn([C@H]3CCCC[C@@H]3C#N)c3cc[nH]c(=O)c23)cc1)n1ccnn1` [Example 3-147, (1S,2S)-2-[3-({4-[1-methyl-1-(1H-1,2,3-triazol-1-yl)ethyl]phenyl}amino)-4-oxo-4,5-dihydro-1H-pyrazolo[4,3-c]pyridin-1-yl]cyclohexanecarbonitrile], the IC50 in assay [1] came out at 0.5 nM; in assay [2] it was 0.17 nM.

For the compound `CC1(c2ccc(Nc3nn([C@H]4CCCC[C@@H]4C#N)c4cc[nH]c(=O)c34)cc2)COC1` [Example 15-13, (1S,2S)-2-(3-{[4-(3-methyloxetan-3-yl)phenyl]amino}-4-oxo-4,5-dihydro-1H-pyrazolo[4,3-c]pyridin-1-yl)cyclohexanecarbonitrile], the IC50 in assay [1] worked out at 0.72 nM; in assay [2], 0.22 nM.

Regarding `N#C[C@H]1CCCC[C@@H]1n1nc(Nc2cccc(Cn3ccnc3)c2)c2c(=O)[nH]ccc21` [Example 3-47, (1S,2S)-2-(3-{[3-(1H-imidazol-1-ylmethyl)phenyl]amino}-4-oxo-4,5-dihydro-1H-pyrazolo[4,3-c]pyridin-1-yl)cyclohexanecarbonitrile], the values for the IC50 in assay [1] and in assay [2] were 2.2 nM and 0.78 nM, respectively.

On to `N#C[C@@H]1CCC[C@H]1n1nc(Nc2ccnc(F)c2)c2c(=O)[nH]ccc21` [Example 3-93, (1R,2R)-2-{3-[(2-fluoropyridin-4-yl)amino]-4-oxo-4,5-dihydro-1H-pyrazolo[4,3-c]pyridin-1-yl}cyclopentanecarbonitrile], for which the values for the IC50 in assay [1] and in assay [2] were 48 nM and 12 nM, respectively.

For the compound `C[C@H](NC1CCC(n2nc(Nc3ccc(Cl)cc3)c3c(=O)[nH]ccc32)C(C#N)C1)C1CC1` (stereo in doubt) [Example 4-2, (1S,2S,5R)-2-(3-((4-Chlorophenyl)amino)-4-oxo-4,5-dihydro-1H-pyrazolo[4,3-c]pyridin-1-yl)-5-(((S)-1-cyclopropylethyl)amino)cyclohexanecarbonitrile], the IC50 is more than 1500 nM in assay [1] and 84 nM in assay [2].

As for `N#C[C@H]1CCCC[C@@H]1n1nc(Nc2ccc(C3CCCN3)cc2)c2c(=O)[nH]ccc21` (single isomer, unassigned) [Example 3-71, (1S,2S)-2-[4-oxo-3-({4-[(2S or 2R)-pyrrolidin-2-yl]phenyl}amino)-4,5-dihydro-1H-pyrazolo[4,3-c]pyridin-1-yl]cyclohexanecarbonitrile], the results for the IC50 in assay [1] and in assay [2] were 0.54 nM and 0.27 nM, respectively.

As for `N#C[C@@H]1C[C@H](N2CCC2)CC[C@H]1n1nc(Nc2ccc(C(F)(F)F)cc2)c2c(=O)[nH]ccc21` [Example 5-10, (1R,2R,5R)-5-(azetidin-1-yl)-2-(4-oxo-3-((4-(trifluoromethyl)phenyl)amino)-4,5-dihydro-1H-pyrazolo[4,3-c]pyridin-1-yl)cyclohexanecarbonitrile], the results for the IC50 in assay [1] and in assay [2] were 940 nM and 37 nM, respectively.

On to `CC(C)(C)OC(=O)NCc1cc(Nc2nn([C@H]3CCCC[C@@H]3C#N)c3cc[nH]c(=O)c23)ccc1F` [Example 3-35, tert-butyl [5-({1-[(1S,2S)-2-cyanocyclohexyl]-4-oxo-4,5-dihydro-1H-pyrazolo[4,3-c]pyridin-3-yl}amino)-2-fluorobenzyl]carbamate], for which the IC50 came to 4.7 nM in assay [1] and 3.2 nM in assay [2].

Consider `N#C[C@H]1CCCC[C@@H]1n1nc(Nc2ccc3c(c2)CNCC3)c2c(=O)[nH]ccc21` [Example 3-157, (1S,2S)-2-[4-oxo-3-(1,2,3,4-tetrahydroisoquinolin-7-ylamino)-4,5-dihydro-1H-pyrazolo[4,3-c]pyridin-1-yl]cyclohexanecarbonitrile], for which the IC50 in assay [1] is 0.88 nM; in assay [2] it was 0.45 nM.

In the case of `COCCNS(=O)(=O)c1ccc(Nc2nn([C@H]3CCCC[C@@H]3C#N)c3cc[nH]c(=O)c23)cc1` [Example 3-21, 4-({1-[(1S,2S)-2-cyanocyclohexyl]-4-oxo-4,5-dihydro-1H-pyrazolo[4,3-c]pyridin-3-yl}amino)-N-(2-methoxyethyl)benzenesulfon-amide], the figures for the IC50 in assay [1] and in assay [2] were 0.79 nM and 0.17 nM, respectively.

Turning to `N#C[C@H]1CCCC[C@@H]1n1nc(Nc2cccc(Cn3cccn3)c2)c2c(=O)[nH]ccc21` [Example 3-43, (1S,2S)-2-(4-oxo-3-{[3-(1H-pyrazol-1-ylmethyl)phenyl]amino}-4,5-dihydro-1H-pyrazolo[4,3-c]pyridin-1-yl)cyclohexanecarbonitrile], the values for the IC50 in assay [1] and in assay [2] were 1.7 nM and 1.4 nM, respectively.

As for `CC(O)(c1ccc(Nc2nn([C@H]3CCCC[C@@H]3C#N)c3cc[nH]c(=O)c23)cc1)C(F)(F)F` (single isomer, unassigned) [Example 15-12, (1S,2S)-2-[4-oxo-3-({4-[(1R or 1S)-2,2,2-trifluoro-1-hydroxy-1-methylethyl]phenyl}amino)-4,5-dihydro-1H-pyrazolo[4,3-c]pyridin-1-yl]cyclohexanecarbonitrile], the IC50 in assay [1] worked out at 0.84 nM; in assay [2] it was 0.14 nM.

On to `Cc1nc2ccc(Nc3nn([C@H]4CCCC[C@@H]4C#N)c4cc[nH]c(=O)c34)cc2s1` [Example 15-10, (1S,2S)-2-{3-[(2-methyl-1,3-benzothiazol-6-yl)amino]-4-oxo-4,5-dihydro-1H-pyrazolo[4,3-c]pyridin-1-yl}cyclohexanecarbonitrile], for which the IC50 in assay [1] amounted to 1.6 nM; in assay [2], 0.092 nM.

On to `CC(C)[C@@H](C)N1Cc2ccc(Nc3nn([C@H]4CCCC[C@@H]4C#N)c4cc[nH]c(=O)c34)cc2C1` [Example 3-149, (1S,2S)-2-[3-({2-[(1R)-1,2-dimethylpropyl]-2,3-dihydro-1H-isoindol-5-yl}amino)-4-oxo-4,5-dihydro-1H-pyrazolo[4,3-c]pyridin-1-yl]cyclohexanecarbonitrile], for which the IC50 was 0.61 nM in assay [1] and 0.48 nM in assay [2].

`COC(C)(c1ccc(Nc2nn([C@H]3CCCC[C@@H]3C#N)c3cc[nH]c(=O)c23)cc1)C(F)(F)F` (single isomer, unassigned) [Example 3-125, (1S,2S)-2-(4-oxo-3-((4-((R or S)-1,1,1-trifluoro-2-methoxypropan-2-yl)phenyl)amino)-4,5-dihydro-1H-pyrazolo[4,3-c]pyridin-1-yl)cyclohexanecarbonitrile]: the IC50 was 0.86 nM in assay [1] and 0.32 nM in assay [2].

Regarding `N#C[C@H]1CCCC[C@@H]1n1nc(Nc2ccc(Cn3ccnn3)cc2)c2c(=O)[nH]ccc21` [Example 3-46, (1S,2S)-2-(4-oxo-3-{[4-(1H-1,2,3-triazol-1-ylmethyl)phenyl]amino}-4,5-dihydro-1H-pyrazolo[4,3-c]pyridin-1-yl)cyclohexanecarbonitrile], the values for the IC50 in assay [1] and in assay [2] were 0.34 nM and 0.095 nM, respectively.

For `N#C[C@H]1CCCC[C@@H]1n1nc(Nc2ccc(-c3nccs3)cc2)c2c(=O)[nH]ccc21` [Example 15-2, (1S,2S)-2-(4-oxo-3-{[4-(1,3-thiazol-2-yl)phenyl]amino}-4,5-dihydro-1H-pyrazolo[4,3-c]pyridin-1-yl)cyclohexanecarbonitrile], the IC50 in assay [1] is 3.6 nM; in assay [2], 0.26 nM.

Turning to `CN(C)[C@H]1CC[C@H](n2nc(Nc3ccc(Cl)c(F)c3)c3c(=O)[nH]ccc32)[C@@H](C#N)C1` [Example 5-2, (1S,2S,5S)-2-(3-((4-Chloro-3-fluorophenyl)amino)-4-oxo-4,5-dihydro-1H-pyrazolo[4,3-c]pyridin-1-yl)-5-(dimethylamino)cyclohexanecarbonitrile], the IC50 in assay [1] was determined as 14 nM; in assay [2], 0.6 nM.

Regarding `CC1(N2Cc3cc(Nc4nn([C@H]5CCCC[C@@H]5C#N)c5cc[nH]c(=O)c45)ccc3S2(=O)=O)CCC(F)(F)CC1` [Example 15-73, (1S,2S)-2-(3-{[2-(4,4-difluoro-1-methylcyclohexyl)-1,1-dioxido-2,3-dihydro-1,2-benzisothiazol-5-yl]amino}-4-oxo-4,5-dihydro-1H-pyrazolo[4,3-c]pyridin-1-yl)cyclohexanecarbonitrile], the IC50 in assay [1] came to 0.55 nM; in assay [2], 0.28 nM.

As for `CC(C)(C)N1Cc2cc(Nc3nn([C@H]4CCC[C@@H]4C#N)c4cc[nH]c(=O)c34)ccc2S1(=O)=O` [Example 3-100, (1S,2S)-2-{3-[(2-tert-butyl-1,1-dioxido-2,3-dihydro-1,2-benzisothiazol-5-yl)amino]-4-oxo-4,5-dihydro-1H-pyrazolo[4,3-c]pyridin-1-yl}cyclopentanecarbonitrile], the IC50 in assay [1] amounted to 0.28 nM; in assay [2], 0.043 nM.

For `CN1Cc2cc(Nc3nn([C@H]4CCCC[C@@H]4C#N)c4cc[nH]c(=O)c34)ccc2S1(=O)=O` [Example 3-49, (1S,2S)-2-{3-[(2-methyl-1,1-dioxido-2,3-dihydro-1,2-benzisothiazol-5-yl)amino]-4-oxo-4,5-dihydro-1H-pyrazolo[4,3-c]pyridin-1-yl}cyclohexanecarbonitrile], the IC50 in assay [1] was 0.29 nM; in assay [2] it was 0.026 nM.

Regarding `N#C[C@@H]1CCCC[C@H]1n1nc(Nc2cccc(CNC(=O)c3ncccn3)c2)c2c(=O)[nH]ccc21` [Example 3-14, N-[3-({1-[(1R,2R)-2-cyanocyclohexyl]-4-oxo-4,5-dihydro-1H-pyrazolo[4,3-c]pyridin-3-yl}amino)benzyl]pyrimidine-2-carboxamide], the IC50 in assay [1] was found to be 68 nM; in assay [2] it was 38 nM.
